Test results published in the NIST ThermoML archive (doi:10.1021/acs.jced.5b00385).
± gives the expanded uncertainty stated by the source.

Details: Liquid, Vibrating tube method

COCCOC(C)=O [2-methoxyethyl ethanoate]
Details	mass density [kg/m3]
283.47 K, 100 kPa	1015.98 ± 1
283.47 K, 1000 kPa	1016.6 ± 1
283.47 K, 3000 kPa	1018.02 ± 1
283.47 K, 5000 kPa	1019.43 ± 1
283.47 K, 10000 kPa	1022.82 ± 1.1
283.47 K, 20000 kPa	1029.33 ± 1.1
283.47 K, 25000 kPa	1032.44 ± 1.1
283.47 K, 30000 kPa	1035.47 ± 1.1
283.47 K, 40000 kPa	1041.29 ± 1.1
283.47 K, 50000 kPa	1046.81 ± 1.1
283.47 K, 60000 kPa	1052.11 ± 1.1
283.47 K, 70000 kPa	1057.33 ± 1.1
283.47 K, 80000 kPa	1062.12 ± 1.2
283.47 K, 100000 kPa	1071.34 ± 1.2
283.48 K, 15000 kPa	1026.12 ± 1.1
283.48 K, 90000 kPa	1066.8 ± 1.2
293.45 K, 100 kPa	1005.18 ± 1
293.45 K, 1000 kPa	1005.85 ± 1
293.45 K, 3000 kPa	1007.33 ± 1
293.45 K, 5000 kPa	1008.8 ± 1
293.45 K, 10000 kPa	1012.42 ± 1
293.45 K, 15000 kPa	1015.91 ± 1
293.45 K, 20000 kPa	1019.32 ± 1.1
293.45 K, 25000 kPa	1022.58 ± 1.1
293.45 K, 30000 kPa	1025.8 ± 1.1
293.45 K, 40000 kPa	1031.92 ± 1.1
293.45 K, 50000 kPa	1037.72 ± 1.1
293.45 K, 60000 kPa	1043.26 ± 1.1
293.45 K, 70010 kPa	1048.51 ± 1.1
293.45 K, 90000 kPa	1058.45 ± 1.2
293.46 K, 80010 kPa	1053.61 ± 1.1
293.46 K, 100000 kPa	1063.15 ± 1.2
303.37 K, 100 kPa	993.64 ± 1
303.37 K, 5000 kPa	997.55 ± 1
303.37 K, 25000 kPa	1012.15 ± 1
303.37 K, 90010 kPa	1049.67 ± 1.1
303.38 K, 1000 kPa	994.33 ± 1
303.38 K, 3000 kPa	995.95 ± 1
303.38 K, 10000 kPa	1001.38 ± 1
303.38 K, 15000 kPa	1005.07 ± 1
303.38 K, 20000 kPa	1008.68 ± 1
303.38 K, 30000 kPa	1015.48 ± 1
303.38 K, 40000 kPa	1021.92 ± 1.1
303.38 K, 50000 kPa	1027.99 ± 1.1
303.38 K, 60000 kPa	1033.79 ± 1.1
303.38 K, 70000 kPa	1039.34 ± 1.1
303.38 K, 80000 kPa	1044.62 ± 1.1
303.38 K, 100000 kPa	1054.53 ± 1.2
313.28 K, 25000 kPa	1002.26 ± 1
313.29 K, 100 kPa	982.6 ± 1
313.29 K, 20000 kPa	998.59 ± 1
313.3 K, 1000 kPa	983.35 ± 1
313.3 K, 3000 kPa	985.09 ± 1
313.3 K, 5000 kPa	986.8 ± 1
313.3 K, 10000 kPa	990.88 ± 1
313.3 K, 15000 kPa	994.81 ± 1
313.3 K, 30000 kPa	1005.78 ± 1
313.3 K, 40000 kPa	1012.55 ± 1
313.3 K, 50000 kPa	1018.92 ± 1.1
313.3 K, 60000 kPa	1024.91 ± 1.1
313.3 K, 70000 kPa	1030.73 ± 1.1
313.3 K, 80000 kPa	1036.18 ± 1.1
313.3 K, 90000 kPa	1041.42 ± 1.1
313.3 K, 100000 kPa	1046.43 ± 1.2
323.14 K, 100 kPa	971.53 ± 0.99
323.14 K, 1000 kPa	972.34 ± 0.99
323.14 K, 3000 kPa	974.16 ± 1
323.15 K, 5000 kPa	975.96 ± 1
323.15 K, 10000 kPa	980.29 ± 1
323.15 K, 15000 kPa	984.47 ± 1
323.15 K, 20000 kPa	988.47 ± 1
323.15 K, 25000 kPa	992.34 ± 1
323.15 K, 70000 kPa	1022.15 ± 1.1
323.15 K, 80000 kPa	1027.84 ± 1.1
323.15 K, 90000 kPa	1033.26 ± 1.1
323.15 K, 100000 kPa	1038.48 ± 1.1
323.16 K, 30000 kPa	996.08 ± 1
323.16 K, 40000 kPa	1003.14 ± 1
323.16 K, 50000 kPa	1009.8 ± 1
323.16 K, 60000 kPa	1016.1 ± 1.1
333.01 K, 100 kPa	960.32 ± 0.98
333.01 K, 1000 kPa	961.21 ± 0.98
333.01 K, 3000 kPa	963.17 ± 0.99
333.01 K, 50000 kPa	1000.75 ± 1
333.01 K, 60000 kPa	1007.3 ± 1.1
333.02 K, 5000 kPa	965.08 ± 0.99
333.02 K, 10000 kPa	969.69 ± 0.99
333.02 K, 15000 kPa	974.13 ± 1
333.02 K, 20000 kPa	978.36 ± 1
333.02 K, 25000 kPa	982.46 ± 1
333.02 K, 30000 kPa	986.35 ± 1
333.02 K, 40000 kPa	993.79 ± 1
333.02 K, 70000 kPa	1013.7 ± 1.1
333.02 K, 80000 kPa	1019.56 ± 1.1
333.02 K, 90000 kPa	1025.22 ± 1.1
333.02 K, 100000 kPa	1030.6 ± 1.1
342.87 K, 1000 kPa	949.88 ± 0.97
342.88 K, 100 kPa	948.92 ± 0.97
342.88 K, 3000 kPa	951.95 ± 0.98
342.89 K, 5000 kPa	953.98 ± 0.98
342.89 K, 10000 kPa	958.88 ± 0.98
342.89 K, 15000 kPa	963.56 ± 0.99
342.89 K, 20000 kPa	968.04 ± 1
342.89 K, 25000 kPa	972.33 ± 1
342.9 K, 30000 kPa	976.44 ± 1
342.9 K, 40000 kPa	984.26 ± 1
342.9 K, 50000 kPa	991.52 ± 1
342.9 K, 60000 kPa	998.35 ± 1
342.9 K, 70000 kPa	1005.1 ± 1.1
342.9 K, 80010 kPa	1011.23 ± 1.1
342.9 K, 90000 kPa	1017.07 ± 1.1
342.9 K, 100000 kPa	1022.63 ± 1.1
352.77 K, 10000 kPa	948.28 ± 0.98
352.77 K, 15000 kPa	953.26 ± 0.98
352.77 K, 20000 kPa	958 ± 0.99
352.78 K, 25000 kPa	962.53 ± 0.99
352.78 K, 30000 kPa	966.88 ± 1
352.78 K, 40000 kPa	975.07 ± 1
352.78 K, 50000 kPa	982.69 ± 1
352.78 K, 60000 kPa	989.8 ± 1
352.79 K, 100 kPa	937.57 ± 0.96
352.79 K, 1000 kPa	938.6 ± 0.96
352.79 K, 3000 kPa	940.86 ± 0.97
352.79 K, 5000 kPa	943.03 ± 0.97
352.79 K, 70000 kPa	996.7 ± 1
352.79 K, 80000 kPa	1003.07 ± 1.1
352.79 K, 90000 kPa	1009.1 ± 1.1
352.79 K, 100000 kPa	1014.88 ± 1.1
362.64 K, 100 kPa	926.12 ± 0.95
362.64 K, 1000 kPa	927.21 ± 0.95
362.64 K, 3000 kPa	929.6 ± 0.95
362.64 K, 5000 kPa	931.91 ± 0.96
362.64 K, 15000 kPa	942.8 ± 0.97
362.64 K, 50000 kPa	973.78 ± 1
362.65 K, 10000 kPa	937.52 ± 0.97
362.65 K, 20000 kPa	947.84 ± 0.98
362.65 K, 25000 kPa	952.6 ± 0.99
362.65 K, 30000 kPa	957.19 ± 0.99
362.65 K, 40000 kPa	965.79 ± 1
362.65 K, 60000 kPa	981.22 ± 1
362.65 K, 70000 kPa	988.32 ± 1
362.65 K, 80000 kPa	994.92 ± 1.1
362.65 K, 90000 kPa	1001.16 ± 1.1
362.65 K, 100000 kPa	1007.15 ± 1.1
